Laboratory results from PMC4797285 (Nucleic Acids Research, 2016).

Tests used:
[1] = test system: ribosome on the mRNA (PURExpress in vitro protein synthesis kit); assay: Toe-printing assay; assay type: biochemical; conditions: for Position of ribosome stalling in toe-print: 100 μM thiostrepton, 50 μM clindamycin
[2] = test system: ribosomes translating 2XErmBL mRNA (RTS 100 E. coli HY Kit); assay: Disome formation assay; assay type: biochemical, Escherichia coli; conditions: 20 μM erythromycin, positive control

| Molecule | Position of ribosome stalling in toe-print [1] | other results |
| --- | --- | --- |
| RRIRPRPPRLPRPRPR [Bac7(1–16)] | – | Toeprint for ribosomes stalled during initiation ([1]; 100 μM peptide, signal for full-length mRNA became stronger, similar to edeine): became weaker |
| CC[C@H]1OC(=O)[C@H](C)[C@@H](O[C@H]2C[C@@](C)(OC)[C@@H](O)[C@H](C)O2)[C@H](C)[C@@H](O[C@@H]2O[C@H](C)C[C@H](N(C)C)[C@H]2O)[C@](C)(O)C[C@@H](C)C(=O)[C@H](C)[C@@H](O)[C@]1(C)O [erythromycin] | – | Disome formation (translation arrest) [2]: generating the expected disome peaks |
| CCC[C@@H]1C[C@@H](C(=O)N[C@@H]([C@H]2O[C@H](SC)[C@H](O)[C@@H](O)[C@H]2O)[C@H](C)Cl)N(C)C1 [clindamycin] | ribosomes accumulated at the AUG codon | – |
| C=C(NC(=O)C(=C)NC(=O)c1csc(C2=N[C@@H]3c4csc(n4)[C@H]4NC(=O)c5csc(n5)[C@H]([C@](C)(O)[C@@H](C)O)NC(=O)[C@H]5CSC(=N5)/C(=C/C)NC(=O)[C@H]([C@@H](C)O)NC(=O)c5csc(n5)[C@]3(CC2)NC(=O)[C@H](C)NC(=O)C(=C)NC(=O)[C@H](C)NC(=O)[C@H]([C@@H](C)CC)N[C@@H]2C=Cc3c([C@H](C)O)cc(nc3[C@H]2O)C(=O)O[C@@H]4C)n1)C(N)=O [thiostrepton] | ribosomes accumulated at the AUG codon | – |
